Assay results reported in the supplement of paper PMC11208160.

Legend:
[1] = recombinant barcode read abundance after kanamycin selection (control-corrected) (log10(CPM+1)); higher = more efficient recombination; sequences stand for … in AGTGCAGAGAAAATCGGCCAGTTTTCTCTGCCTGCAGTCCGCATGCCGT…AGATTTATGCAGCGGACTGCCTTTCTCCCAAAGTGATAAACCGGACAGTATCATGGACCGGTTTTCCCGGTAATCCGTATTTGCAAGGTTGGTTTCACT; site = the 11-nt target
Protocol: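 Pooled E. coli target-specificity screen for the IS621 bridge recombinase. Each library plasmid pairs an 11-nt target (CT core) with a bridge RNA whose target-binding loop (9-nt LTG + 4-nt RTG) is reprogrammed; the rest of the 177-nt WT IS621 bridge RNA scaffold is fixed. The plasmid is co-electroporated with a WT donor plasmid; recombinase is induced with 0.1 mM IPTG and recombinants are selected on kanamycin. Recombinant barcodes are sequenced, converted to CPM, averaged over two biological replicates and corrected by the unselected control CPM. Molecule = full bridge RNA written as DNA: LTG = specificity nt 1-9, RTG = reverse complement of specificity nt 8-11, in the WT scaffold.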

[2] = recombinant UMI read abundance after kanamycin selection (control-corrected) (log10(CPM+1)); higher = more efficient recombination; extreme values may be limits of the assay; sequences stand for … in AGTGCAGAGAAAATCGGCCAGTTTTCTCTGCCTGCAGTCCGCATGCCGTGGGACCCCTTGGGTTCTAACCTGTTGCCTAGATTTATGCAGCGGACTGCCTTTCTCCCAAAGTGATAAACCGG…AGGTTGGTTTCACT; site = the 11-nt donor
How it was run: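 Reported values are log10(CPM+1) from a pooled Escherichia coli screen of donor and donor-binding-loop pairs for the IS621 bridge recombinase. Selection used IPTG (0.07 mM) plus kanamycin, against unselected plating, each in two replicates. Recombinant UMIs were amplified across the donor–target junction, sequenced, converted to CPM, averaged over replicates and scaled by control-derived factors.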
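Wherever recombinant UMI read abundance after kanamycin selection (control-corrected) is given: IS621 bridge recombinase in Escherichia coli cells against a fixed T5 target plasmid.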
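Wherever recombinant barcode read abundance after kanamycin selection (control-corrected) is given: IS621 recombinase and bridge RNA in Escherichia coli cells.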

Sequence | recombinant barcode read abundance (log10) [1] | recombinant UMI read abundance (log10) [2]
AAAAGTCCTTGGGTTCTAACCTGTTGCCT (site AAAAGTCCTAG) | 1.11 | –
AAAAGTCCTTGGGTTCTAACCTGTTGCCT (site AAGAGTCCTAC) | 0.0517 | –
AAAATGCCTTGGGTTCTAACCTGTTGCCT (site AAAATGCCTAG) | 0.359 | –
AAAATGCCTTGGGTTCTAACCTGTTGCCT (site CAAATGTCTAG) | 0.0967 | –
AAACGACCTTGGGTTCTAACCTGTTGCCT (site AAACGACCTAG) | 1.59 | –
AAACGACCTTGGGTTCTAACCTGTTGCCT (site CAACGACCTAG) | 0.291 | –
AAACGACCTTGGGTTCTAACCTGTTGCCT (site GAACGACCTAG) | 0.0625 | –
AAACGACCTTGGGTTCTAACCTGTTGCCT (site TAACGACCTAG) | 0.801 | –
AAAGCTACTTGGGTTCTAACCTGTTGCTA (site AAAGCTACTTA) | 0.86 | –
AAAGCTACTTGGGTTCTAACCTGTTGCTA (site TGGTAGTCTAC) | 0.0812 | –
AAAGTGTCTTGGGTTCTAACCTGTTGCCT (site AAAGTGTCTAG) | 2.97 | –
AAAGTGTCTTGGGTTCTAACCTGTTGCCT (site AACGTGTCTAG) | 0.373 | –
AAAGTGTCTTGGGTTCTAACCTGTTGCCT (site AAGGTGTCTAG) | 0.489 | –
AAAGTGTCTTGGGTTCTAACCTGTTGCCT (site AATGTGTCTAG) | 0.65 | –
AAATCGTCTTGGGTTCTAACCTGTTGCCT (site AAATCGTCTAG) | 0.817 | –
AAATCGTCTTGGGTTCTAACCTGTTGCCT (site AACACGTCTAG) | 0.176 | –
AACAGCTCTTGGGTTCTAACCTGTTGCCT (site AACAGCTCTAG) | 1.75 | –
AACAGCTCTTGGGTTCTAACCTGTTGCCT (site AACAGTTCTAG) | 0.15 | –
AACAGTGCTTGGGTTCTAACCTGTTGCCT (site AACAATGCTAG) | 0.248 | –
AACAGTGCTTGGGTTCTAACCTGTTGCCT (site AACACTGCTAG) | 0.219 | –
AACAGTGCTTGGGTTCTAACCTGTTGCCT (site AACAGTGCTAG) | 0.73 | –

Sequence | recombinant barcode read abundance (log10) [1] | recombinant UMI read abundance (log10) [2]
AACAGTGCTTGGGTTCTAACCTGTTGCCT (site AACATTGCTAG) | 0.0547 | –
AACATGCCTTGGGTTCTAACCTGTTGCTT (site AACAAGCCTCA) | 0.233 | –
AACATGCCTTGGGTTCTAACCTGTTGCTT (site AACATGCCTAA) | 0.478 | –
AACCAGCCTTGGGTTCTAACCTGTTGCCT (site AACCAGCCTAG) | 1.33 | –
AACCAGCCTTGGGTTCTAACCTGTTGCCT (site AACCATCCTAG) | 0 | –
AACCAGTCTTGGGTTCTAACCTGTTGCGA (site AACCAGTCTTC) | 1.38 | –
AACCAGTCTTGGGTTCTAACCTGTTGCGA (site AACTAGTCTTA) | 0.0824 | –
AACGCTCCTTGGGTTCTAACCTGTTGCCT (site AACGCTCCTAG) | 0.102 | –
AACGCTCCTTGGGTTCTAACCTGTTGCCT (site ACCGCTCCTAG) | 0 | –
AACGCTCCTTGGGTTCTAACCTGTTGCCT (site AGCGCTCCTAG) | 0.833 | –
AACGCTCCTTGGGTTCTAACCTGTTGCCT (site ATCGCTCCTAG) | 0.239 | –
AACGCTCCTTGGGTTCTAACCTGTTGCGG (site AACGCTCCTCC) | 0.503 | –
AACGCTCCTTGGGTTCTAACCTGTTGCGG (site CACGGTCCTCC) | 0.0943 | –
AACTAAGCTTGGGTTCTAACCTGTTGCCT (site AACTAAGCTAG) | 0.336 | –
AACTAAGCTTGGGTTCTAACCTGTTGCCT (site GGAAGCCCTTA) | 0.325 | –
AACTCAACTTGGGTTCTAACCTGTTGCCT (site AACTAAACTAG) | 0.108 | –
AACTCAACTTGGGTTCTAACCTGTTGCCT (site AACTCAACTAG) | 0.288 | –
AACTCAACTTGGGTTCTAACCTGTTGCCT (site AACTGAACTAG) | 0.18 | –
AACTCAACTTGGGTTCTAACCTGTTGCCT (site AACTTAACTAG) | 0.107 | –
AAGAAAGCTTGGGTTCTAACCTGTTGCCT (site AAGAAAGCTAG) | 1.82 | –
AAGAAAGCTTGGGTTCTAACCTGTTGCCT (site AAGACAGCTAG) | 0.0854 | –

Sequence | recombinant barcode read abundance (log10) [1] | recombinant UMI read abundance (log10) [2]
AAGAAAGCTTGGGTTCTAACCTGTTGCCT (site AAGAGAGCTAG) | 0.113 | –
AAGAAAGCTTGGGTTCTAACCTGTTGCCT (site AAGATAGCTAG) | 0.464 | –
AAGACCTCTTGGGTTCTAACCTGTTGCCT (site AAGACCTCTAG) | 1.67 | –
TTTGAATCATGGACCGGTTTTCCCGGTAATCCGTATTTGAC (site TTTGAATCTGT) | – | 0
TTTGAGACATGGACCGGTTTTCCCGGTAATCCGTATTTGGT (site ATTGAGACTAC) | – | 0.0113
TTTGAGACATGGACCGGTTTTCCCGGTAATCCGTATTTGGT (site CTTGAGACTAC) | – | 0.0146
TTTGAGACATGGACCGGTTTTCCCGGTAATCCGTATTTGGT (site GTTGAGACTAC) | – | 0.0113
TTTGAGACATGGACCGGTTTTCCCGGTAATCCGTATTTGGT (site TTTGAGACTAC) | – | 0.511
TTTGCGGCATGGACCGGTTTTCCCGGTAATCCGTATTTGCC (site TTTGCGGCTAG) | – | 0.0224
TTTGCGGCATGGACCGGTTTTCCCGGTAATCCGTATTTGCC (site TTTGCGGCTCG) | – | 0.0088
TTTGCGGCATGGACCGGTTTTCCCGGTAATCCGTATTTGCC (site TTTGCGGCTGG) | – | 0
TTTGCGGCATGGACCGGTTTTCCCGGTAATCCGTATTTGCC (site TTTGCGGCTTG) | – | 0.0109
TTTGCGGCATGGACCGGTTTTCCCGGTAATCCGTATTTGCG (site TTTGCGGCTAG) | – | 0.00371
TTTGCGGCATGGACCGGTTTTCCCGGTAATCCGTATTTGCG (site TTTGCGGCTCG) | – | 0.0191
TTTGCGGCATGGACCGGTTTTCCCGGTAATCCGTATTTGCG (site TTTGCGGCTGG) | – | 0
TTTGCGGCATGGACCGGTTTTCCCGGTAATCCGTATTTGCG (site TTTGCGGCTTG) | – | 0.0091
TTTGCTGCATGGACCGGTTTTCCCGGTAATCCGTATTTGCT (site TTTGCAGCTAG) | – | 0
TTTGCTGCATGGACCGGTTTTCCCGGTAATCCGTATTTGCT (site TTTGCCGCTAG) | – | 0.0567
TTTGCTGCATGGACCGGTTTTCCCGGTAATCCGTATTTGCT (site TTTGCGGCTAG) | – | 0
TTTGCTGCATGGACCGGTTTTCCCGGTAATCCGTATTTGCT (site TTTGCTGCTAG) | – | 0.00917
TTTGTCACATGGACCGGTTTTCCCGGTAATCCGTATTTGGA (site TTTGTCACTTC) | – | 0.187
